Laboratory results as given in patent publication US20100120703A1, “COMPOSITIONS AND METHODS FOR TREATING CANCER” (priority 2007, published 2010).

How the values were obtained:
Sprague Dawley (SD) rats [1] = assay: Histological analysis and GST-p immunostaining of liver, promotion stage; type: in vivo, rat
Description: In the promotion stage experiment, rats in the negative control group received weekly intraperitoneal (i.p.) injection of DMSO for the first 2 weeks and then Corn Oil for the rest of the schedule. Rats in the positive control and SIN-treatment groups both received weekly intraperitoneal (i.p.) injection of the carcinogen DEN for the first 2 weeks and then promoter, Carbon Tetrachloride (CCl4) for the rest of the schedule. Two weeks of fasting were inserted between the initiator carcinogen treatment and the promoter CCl4 treatment. During the fasting period of 2 weeks, rats were fasted for 5 days, followed by a 2 day feeding, and another 5 days of fasting. Water was given ad libitum. Negative and positive control groups received oral treatment of water once a day after fasting. Sinigrin with dosage 15 mg/kg was administered orally to the treatment group daily for 28 weeks after fasting.
Histological analysis was performed to observe the basic structure of the hepatocytes. Xylene was purchased from Mallinckrodt. Ethanol was purchased from BDH. ABC staining (Anti-rabbit) kit (sc-2018) was purchased from Santa Cruz. Superfrost Microscope slide was purchased from Fisher. 30% H2O2, DAB and Formaldehyde were purchased from Sigma. Anti-GST-pi rabbit polyclonal antibody was purchased from MBL.
The liver samples were fixed with 10% formaldehyde and put in cassettes for dehydration and fixed with wax. […]

Sprague Dawley (SD) rats [2] = assay: Histological analysis and GST-p immunostaining of liver, progression stage; type: in vivo, rat
Description: The liver samples were fixed with 10% formaldehyde and put in cassettes for dehydration and fixed with wax. Subsequently, liver samples were embedded in the solidified wax and sliced to 5 μm thickness with a microtome machine. Sliced samples were mounted onto Superfrost microscope slides for further studies.
Slides with liver sections were placed on a slide holder, dewaxed and rehydrated with xylene (3 times, each time 5 minutes), 100% ethanol (3 times, each time 3 minutes), 95% ethanol (3 minutes), 80% ethanol (3 minutes) and distilled water (5 minutes) in order. Slides were then immersed into hematoxylin for about 3 minutes, and the color was allowed to develop for several minutes in water, followed by brief destaining with acid ethanol and water. Slides were immersed into eosin for about 30 seconds to stain the cytoplasm red, followed by washing in tap water for several minutes. Slide-checking was necessary to assure the best staining effect. Slides were then dehydrated with 95% ethanol (3 minutes), 100% ethanol (3 times, each time 5 minutes), and xylene (3 times, each time 5 minutes), in order. Finally, the slides were mounted with coverslips and allowed to dry. […]
The images were checked and captured by an Axiophot-2 Universal microscope (Zeiss) connected with computer for documentation. The image was recorded by Spot 32 image capture software (Diagnostic Instruments). […]

C=CC/C(=N/OS(=O)(=O)[O-])S[C@@H]1OC(CO)[C@@H](O)C(O)C1O.[K+] (stereo partly shown) [SIN, sinigrin]
hepatocyte structure in liver sections (H&E) (Sprague Dawley (SD) rats [1]; 15 mg/kg oral daily): the basic structure of hepatocytes and the central vein were restored | GST-p positive area / whole section area (Sprague Dawley (SD) rats [1]; positive control 35%): 5% | hepatocyte structure in liver sections (H&E) (Sprague Dawley (SD) rats [2]; 15 mg/kg oral daily): the basic structure was restored without abnormal appearance | GST-p positive area / whole section area (Sprague Dawley (SD) rats [2]; positive control about 30%): less than 10%
